Assay [1] relates to p27 levels in LNCaP-S14 cells. Nature of the assay: p27 immunofluorescence screening assay in LNCaP-S14 cells.
Method: Screening protocol. The immunofluorescence assay was adapted to 384-well plate format. All parameters, including the number of cells to be plated, fixation and blocking conditions, antibody concentrations, and incubation times with compounds were extensively optimized using positive (proteasome inhibitors, roscovitine) and negative controls (vehicle), resulting in the following reliable protocol: 4000 LNCaP-S14 cells per well were seeded in 25 μL RPMI, 10% FBS, using an automated liquid handler (Wellmate). […] Cells were fixed by adding 20 μL of 10% para-formaldehyde (final concentration 4%) directly to the medium and incubation for 20 minutes at room temperature. Cells were permeabilized by washing 3×5 min with PBS, 0.1% Triton X100 (30 μL/well), followed by blocking in 30 μL/well 5% nonfat dry milk in PBS, 0.1% Triton X100 for 1 hour at room temperature. Cells were incubated in 15 μl/well primary antibody (anti-p27, Transduction Laboratories K25030, 1:1000 in blocking buffer) for 1 h. […] Cells were washed 3×5 min in PBS, 0.1% Triton X100 (30 μL/well) and stained with Hoechst dye for two min at room temperature. Cells were washed twice in PBS, 5 min each. 30 μL/well of PBS were added, and plates were sealed and stored in the dark at 4° C. until scanning. All solutions were added using the Wellmate device, and aspirations were done with a 24 pin manual aspirator (“the wand”).
Two images per well were obtained at each wave length and analyzed with MetaXpress software. Pixel dimensions for detection of cell nuclei were set to 7×12, a setting that performed well in the detection of nuclear staining, while successfully excluding aggregates of cells growing on top of each other. […] MetaXpress processing of the raw images provided quantitative measures of the total cell number and the number of p27 positive cells in a given field.
To develop a screening assay, the immunofluorescence assay was adapted to 384-well plate format. All parameters, including the number of cells to be plated, fixation and blocking conditions, antibody concentrations, and incubation times with compounds were extensively optimized using positive (proteasome inhibitors, roscovitine) and negative controls (vehicle). In parallel with the efforts described above, we established the following reliable protocol: 4000 S14 cells per well were seeded into 384-well plates in 30 μL RPMI and 10% FBS using an automated liquid handler (Wellmate). […] Cells were fixed by adding 20 μl of 10% paraformaldehyde (final concentration 4%) directly to the medium and incubation for 20 minutes at RT. Cells were permeabilized by washing 3×5 min with PBS, 0.1% Triton X100 (30 μL/well), followed by blocking in 30 μL/well 5% nonfat dry milk in PBS, 0.1% Triton X100 for 1 hour at RT. Cells were incubated in 15 μL/well primary antibody (anti-p27, Transduction Laboratories K25030, 1:1000 in blocking buffer) for 1 h. […] Cells were washed 3×5 min in PBS, 0.1% Triton X100 (30 μL/well) and stained with Hoechst dye for 2 min at RT. Cells were washed twice in PBS, 5 min each.
In assay [2] the test system is LNCaP-S14 cells. Put plainly: MTT viability assay, LNCaP-S14. It counts as cell-based, human. Particulars: Homo sapiens, 72 h, Table 4, read-out: IC50 (concentration of 50% growth inhibition), LNCaP-S14. The procedure: We next explored the effects of SMIPs on cell viability. S14 and IMR90 cells were exposed to increasing concentrations of SMIPs for 72 h and scored for viability using the MTT assay. IC50 values (concentration of 50% growth inhibition) were calculated (Table 4).
We next compared IC50 values for cytotoxicity of SMIP004 in S14 compared with parental LNCaP cells. […] We are testing whether SMIP-induced cytotoxicity is due to apoptosis.
For orientation: Formazan colour is commonly taken as a measure of viable cells.

Assay [3] concerns IMR90 normal human fibroblasts. Put plainly: MTT viability assay, IMR90. Particulars: Homo sapiens, IMR-90, 72 h, Table 4, read-out: IC50 (concentration of 50% growth inhibition), IMR90. It counts as cell-based. The procedure: We next explored the effects of SMIPs on cell viability. […] IC50 values (concentration of 50% growth inhibition) were calculated (Table 4).
[4] abbreviates: Table 1, compounds showing SMIP activity in the secondary screen, p27-positive cells, cell line not given.
Where [5] appears, read: Table 1, standard deviations from plate mean, cell line not given.
Where [6] appears, read: […], p27-positive cells, cell line not given.

Results on 33 molecules are retold here after patent US20090054312A1, “SMIPs: Small molecule inhibitors of p27 depletion in cancers and other proliferative diseases” (priority 2007, published 2009).

Where a name gives a salt, the structure may show the parent alone. Read-outs that look alike come from different tables or passages of the source.

As to `O=c1cc(-c2ccc(O)c(O)c2)oc2cc(O)cc(O)c12` [Luteolin, reference compound], the “% positive” value in assay [1] (setting [4]) worked out at 19.15%. Further, the Z score in assay [1] (setting [5]) is 10.5904.
In the same order, the values of `OC(c1cc(C(F)(F)F)nc2c(C(F)(F)F)cccc12)C1CCCCN1` (stereo not drawn) [Mefloquine, reference compound] are 17.66% and 9.5116.
In the same order, the values of `CC1=CC(=O)c2ccccc2C1=O` [Menadione, reference compound] are 38.33% and 24.4943.
In the same order, the values of `CSc1ccc2c(c1)C(N1CCN(C)CC1)Cc1ccccc1S2.O=C(O)/C=C\C(=O)O` (stereo not drawn) [Methiothepin maleate, reference compound] are 9.08% and 3.2976.
As to `CN(C)c1ccc(O)c2c1C[C@H]1C[C@H]3[C@H](N(C)C)C(O)=C(C(N)=O)C(=O)[C@@]3(O)C(O)=C1C2=O` [Minocycline hydrochloride, reference compound], the “% positive” value in assay [1] (setting [4]) amounted to 46.17%. Further, the Z score in assay [1] (setting [5]) is on record as 30.1696.
For the molecule `CO[C@@]12[C@H](COC(N)=O)C3=C(C(=O)C(C)=C(N)C3=O)N1C[C@@H]1N[C@@H]12` [Mitomycin C, reference compound], in assay [1] (setting [4]), the “% positive” value was 42.52%. In assay [1] (setting [5]), this molecule showed a Z score of 27.5299.
As for `CCC1(C2OC(C3OC(O)(CO)C(C)CC3C)CC2C)CCC(C2(C)CCC3(CC(O)C(C)C(C(C)C(OC)C(C)C(=O)[O-])O3)O2)O1.[Na+]` (stereo not drawn) [Monensin, sodium salt, sodium 4-[2-[5-ethyl-5-[5-[6-hydroxy-6-(hydroxymethyl)-3,5-dimethyl-oxan-2-yl]-3-methyl-oxolan-2-yl]oxolan-2-yl]-9-hydroxy-2,8-dimethyl-1,6-dioxaspiro[4.5]decan-7-yl)-3-methoxy-2-methyl-pentanoate, reference compound], the Z score in assay [1] (setting [5]) was 33.5974. The “% positive” value in assay [1] (setting [6]) is recorded as 50.90%.
Take `CCN(CC)c1cc(-c2ccc(F)cc2)nc(-c2ccncc2)n1` [N,N-diethyl-6-(4-fluorophenyl)-2-pyridin-4-yl-pyrimidin-4-amine]: the “% positive” value in assay [1] (setting [4]) came to 4.69%. The Z score in assay [1] (setting [5]) stood at 0.1118.
In the same order, the values of `CC(C)(C)c1cc2cc(NS(=O)(=O)c3ccc(Cl)cc3)ccc2[nH]1` [N-(2-tert-butyl-(1H)-indol-5-yl)-4-chlorobenzenesulfonamide] are 37.42% and 23.8290.
In the same order, the values of `COc1ccc(S(=O)(=O)Nc2ccc3[nH]c(C(C)(C)C)cc3c2)cc1` [N-(2-tert-butyl-(1H)-indol-5-yl)-4-methoxybenzenesulfonamide] are 29.15% and 17.8415.
In the same order, the values of `CCC(=O)N(Cc1cccc(Cl)c1)c1ccc2[nH]c(C(C)(C)C)cc2c1` [N-(2-tert-butyl-(1H)-indol-5-yl)-N-(3-chlorobenzyl)propanamide] are 33.19% and 20.7674.
Take `Cc1cc(Br)ccc1NC(=O)CCCc1c[nH]c2ccccc12` [N-(4-bromo-2-methyl-phenyl)-4-(1H-indol-3-yl)butanamide]: the “% positive” value in assay [1] (setting [4]) came to 30.52%. In addition, in assay [1] (setting [5]), the Z score is 18.8304.
In the same order, the values of `COc1ccc(S(=O)(=O)Nc2cccc3cc(C(=O)NCc4ccc(Cl)cc4)[nH]c23)cc1` [N-(4-chlorobenzyl)-7-[((4-methoxyphenyl)sulfonyl)amino]-(1H)-indole-2-carboxamide] are 11.30% and 4.9019.
Regarding `COc1ccc(S(=O)(=O)N(Cc2ccc(Cl)cc2)Cc2ccc3cc[nH]c3c2)cc1` [N-(4-chlorobenzyl)-N-[((1H)-indol-6-yl)methyl]-4-methoxybenzenesulfonamide], in assay [1] (setting [4]), the “% positive” value stood at 9.23%. This molecule also registered a Z score in assay [1] (setting [5]) of 3.4074.
Consider `CC(=O)Nc1ccc(S(=O)(=O)N(Cc2ccc3c(c2)CCO3)C2CC2)cc1` [N-(4-{[cyclopropyl(2,3-dihydro-1-benzofuran-5-ylmethyl)amino]sulfonyl}phenyl)acetamide], for which the “% positive” value in assay [1] (setting [4]) is on record as 14.84%. Further, in assay [1] (setting [5]), the Z score amounted to 7.4706.
In the same order, the values of `O=C(Nc1ccccc1)Nc1ccc(SCc2nc(OCC(F)(F)F)cc(OCC(F)(F)F)n2)cc1` [N-[4-[[[4,6-bis(2,2,2-trifluoroethoxy)pyrimidin-2-yl]methyl]thio]phenyl]-N′′-phenylurea] are 39.26% and 25.1654.
In the same order, the values of `O=C(Nc1ccc([N+](=O)[O-])cc1Cl)c1cc(Cl)ccc1O` [Niclosamide, reference compound] are 42.32% and 27.3834.
In the same order, the values of `CO[C@@H]1C[C@@H](C[C@H]2CC[C@H](C)[C@H]([C@@H](C)C(=O)O)O2)O[C@]2(O[C@](C)([C@H]3CC[C@@](C)([C@@H]4O[C@@H]([C@H]5O[C@@](O)(CO)[C@H](C)C[C@@H]5C)C[C@@H]4C)O3)C[C@H]2C)[C@@H]1C` [Nigericin sodium, reference compound] are 35.05% and 22.1153.
`C1CCC(C(CC2CCCCN2)C2CCCCC2)CC1.O=C(O)/C=C\C(=O)O` (stereo not drawn) [Perhexilline maleate, reference compound] came in with a Z score in assay [1] (setting [5]) of −0.0837. The “% positive” value in assay [1] (setting [6]) is on record as 4.42%.
With `OCCN1CCN(CCCN2c3ccccc3Sc3ccc(Cl)cc32)CC1` [Perphenazine, reference compound], the “% positive” value in assay [1] (setting [4]) is 12.07%. In addition, the Z score in assay [1] (setting [5]) amounted to 5.4640.
In the same order, the values of `COc1ccc(C[C@H](N)C(=O)N[C@H]2[C@@H](O)[C@H](n3cnc4c(N(C)C)ncnc43)O[C@@H]2CO)cc1` [Puromycin hydrochloride, reference compound] are 63.07% and 42.4217.
As for `[O-][n+]1ccccc1[S-].[O-][n+]1ccccc1[S-].[Zn+2]` [Pyrithione zinc, reference compound], in assay [1], the “% positive” value amounted to 10.31% and the Z score is 4.1877.
As for `CCN(CC)CCCC(C)Nc1c2ccc(Cl)cc2nc2ccc(OC)cc12` (stereo not drawn) [Quinacrine hydrochloride, reference compound], in assay [1] (setting [4]), the “% positive” value was 36.17%. In assay [1] (setting [5]), this molecule registered a Z score of 22.9232.
As to `CC[C@@H](C(=O)[C@@H](C)[C@@H](O)[C@H](C)[C@@H]1O[C@@H]([C@@H](CC)C(=O)O)CC[C@@H]1C)[C@H]1O[C@]2(C=C[C@@H](O)[C@]3(CC[C@@](C)([C@H]4CC[C@](O)(CC)[C@H](C)O4)O3)O2)[C@H](C)C[C@@H]1C` [Salinomycin, sodium, reference compound], in assay [1] (setting [5]), the Z score is 37.4159. Also, in assay [1] (setting [6]), the “% positive” value is 56.17%.
In the same order, the values of `C[n+]1cc2c3c(ccc2c2ccc4cc5c(cc4c21)OCO5)OCO3` [Sanguinarine nitrate, reference compound] are 11.4629 and 20.35%.
In the same order, the values of `O=C1C=C2C=C[C@@H]3C[C@@]2(O1)[C@H]1CCCCN31` [Securinine, reference compound] are 7.6953 and 15.15%.
Turning to `O=C(CCCN1CCC2(CC1)C(=O)NCN2c1ccccc1)c1ccc(F)cc1` [Spiperone, reference compound], in assay [1] (setting [4]), the “% positive” value came out at 32.90%. In addition, the Z score in assay [1] (setting [5]) stood at 20.5550.
In the same order, the values of `Clc1ccc(CSC(Cn2ccnc2)c2ccc(Cl)cc2Cl)cc1` (stereo not drawn) [Sulconazole nitrate, reference compound] are 19.81% and 11.0719.
As to `C/C=C(/C)C(=O)O[C@H]1C(C)=C2[C@H]([C@@H]1OC(=O)CCCCCCC)[C@@](C)(OC(C)=O)C[C@H](OC(=O)CCC)[C@@]1(O)[C@H]2OC(=O)[C@@]1(C)O` [Thapsigargin, reference compound], the IC50 in assay [2] stood at 7.8 nM; in assay [3] it was 31.1 nM.
On to `C=C(NC(=O)C(=C)NC(=O)c1csc(C2=N[C@@H]3c4csc(n4)[C@H]4NC(=O)c5csc(n5)[C@H]([C@](C)(O)[C@@H](C)O)NC(=O)[C@H]5CSC(=N5)/C(=C/C)NC(=O)[C@H]([C@@H](C)O)NC(=O)c5csc(n5)[C@]3(CC2)NC(=O)[C@H](C)NC(=O)C(=C)NC(=O)[C@H](C)NC(=O)[C@H]([C@@H](C)CC)N[C@@H]2C=Cc3c([C@H](C)O)cc(nc3[C@H]2O)C(=O)O[C@@H]4C)n1)C(N)=O` [Thiostrepton, reference compound], for which the “% positive” value in assay [1] (setting [4]) was 15.09%. This molecule returned a Z score in assay [1] (setting [5]) of 7.6485.
For the molecule `CCCCCCCCCCCCCCCC[N+](C)(C)CCN(Cc1ccc(OC)cc1)c1ncccn1` [Thonzonium, reference compound], the “% positive” value in assay [1] (setting [4]) amounted to 9.65%. This molecule also showed a Z score in assay [1] (setting [5]) of 3.7078.
In the same order, the values of Clofilium tosylate [reference compound] are 53.49% and 35.4749.
In the same order, the values of “Oligomycin A [Oligomycin A (mix of A, B, C), reference compound]” are 26.65% and 16.0298.
